The target in one series is T1, CCR2B (Homo sapiens, UniProt P41597).
T1 construct: expressed in transfected cells; host or cells: CHO cells (membrane preparation)
T1 sequence (P41597 1-360 isoform P41597-2): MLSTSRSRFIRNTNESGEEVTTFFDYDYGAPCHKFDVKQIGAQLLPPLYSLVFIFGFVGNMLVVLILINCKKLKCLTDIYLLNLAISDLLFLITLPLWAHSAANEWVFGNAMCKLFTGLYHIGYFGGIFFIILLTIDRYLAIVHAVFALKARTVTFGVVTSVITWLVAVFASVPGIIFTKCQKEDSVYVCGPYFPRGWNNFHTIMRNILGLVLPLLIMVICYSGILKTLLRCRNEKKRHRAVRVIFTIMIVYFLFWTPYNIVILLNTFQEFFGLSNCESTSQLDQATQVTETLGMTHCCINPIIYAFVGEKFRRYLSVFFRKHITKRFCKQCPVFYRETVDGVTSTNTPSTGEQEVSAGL
As to the kind of experiment: 125I-MCP-1 radioligand binding assay, membranes from CCR2B-transfected CHO cells. Conditions: competition with 0.15 nM 125I-MCP-1, CCR2B-transfected CHO cell membranes, Cheng-Prusoff. The procedure: Radioligand Binding Assay.
^125I-MCP-1 binding assays were performed in 96:well plates with 40 μg of protein per well. Compounds were dissolved and diluted in DMSO to 100× dilutions. A 10× concentration range of compounds was prepared in binding buffer (10% DSMO). Competition binding assays contained the following components in a total volume of 250 μl: 25 μl of the appropriate compound dilution (final concentration of 1% DMSO), 200 μl membranes from CCR2B-transfected CHO cells dissolved in binding buffer and 25 μl ^125I-MCP-1 (Bolton and Hunter labeled, Amersham, specific activity=2000 Ci/mmol, 0.15 nM final). Binding buffer was composed of 25 mM HEPES, 5 mM MgCl2, 1 mM CaCl2, 0.5% protease-free bovine serum albumin, pH 7.4. After 90 minutes incubation at 25° C. membranes were harvested on GF/B filters—presoaked in 0.5% polyethylenimine, followed by washing with buffer containing 25 mM HEPES, 5 mM MgCl2, 1 mM CaCl2, 5 mM NaCl, pH 7.4. Filter bound radioactivity was determined by liquid scintillation counting. EC50 values (μM) and Ki values (μM) were calculated. The ED50 value indicates the concentration of the test compound that competes with MCP-1 for half of the specific binding sites; the Ki value indicates the equilibrium dissociation constant, i.e. the concentration of the test compound that will bind to half of the binding sites at equilibrium in the absence of radioligand or other competitors. EC50 values and Ki values were calculated using non-linear regression in Graphpad Prism. Prism calculates the Ki or affinity of the receptor for the competing drug using the equation of Cheng and Prusoff (Biochem. Pharmacol. 1973, 22: 3099-3108). A low Ki indicates a high affinity of the receptor for the test compound. [formula] wherein Kd describes the affinity of the radioligand for the receptor, i.e. the concentration of the radioligand that will bind to half of the binding sites at equilibrium in the absence of competitors.
Table 6 lists Ki values (μM) obtained in the above-described test for compounds of formula (I).

The target in series [1] is T2, CCR2 (Homo sapiens, UniProt P41597).
T2 sequence (P41597 1-360 isoform P41597-2): T1 sequence (P41597 1-360 isoform P41597-2)
Briefly: Chemotactic response of human PBMC to MCP-1. It counts as cell-based. Further details: Mononuclear cells from human heparinized peripheral blood (PBMC) were isolated; endogenous in cells; host or cells: human peripheral blood mononuclear cells. Conditions: inhibition of migration of human PBMC to 30 ng/ml hMCP-1, 105 minutes. The protocol: The CCR2 antagonistic activity of the compounds of the present invention can also be determined by measuring the effect of the compounds on the chemotactic response of cells in the presence of a chemokine, such as for example MCP-1.
Mononuclear cells from human heparinized peripheral blood (PBMC) were isolated using Ficoll-Paque gradient centrifugation (Amersham Biosciences). Assays of chemotactic responsiveness were performed using disposable 96-well chemotaxis chambers (ChemoTx, Neuro Probe) with 5-μm pore size polycarbonate (PVP-free) filter membranes. Mononuclear cells were fluorescently labeled with 5 μg/ml Calcein-AM (Molecular Probes, Eugene, Oreg.) at 37° C. for 30 minutes. Labeled cells were washed twice and resuspended at 5×10^6 cells/ml in Hanks' Balanced Salt Solution (Gibco BRL) supplemented with 0.2% bovine serum albumin. Subsequently, cells were pre-incubated for 10 minutes at room temperature with serial dilutions of the compounds in DMSO (dimethylsulfoxide) (final DMSO concentration of 0.2%). Bottom wells of the chemotaxis chamber were loaded with 28 μl medium containing 30 ng/ml recombinant hMCP-1 (R&D) or buffer only. Pre-treated cells (100.000 cells) were added in triplicate to the topside of the filter (20 μl) and incubated at 37° C. in humidified air containing 5% CO2. After 105 minutes incubation, the non-migrated cells were removed from the top of the filter by gently wiping the filter with a tissue. The migrated cells were measured using a fluorescent plate reader (λexcitation=485 nm; λemission=538 nm). The chemotactic response can be expressed as chemotactic index (C.I.), being the ratio of the means of migrated cells in the presence of MCP-1 and the means of migrated cells in the absence of chemokine. Percentage inhibition was calculated using the formula: [formula]
with Fsample, the fluorescence of the cells pre-incubated with 10, 1, 0.1, 0.01 or 0.001 μM compound and migrated to 30 ng/ml MCP-1 in the bottom wells; FMCP-1, the fluorescence of the cells pre-incubated with buffer-0.2% DMSO and migrated to 30 ng/ml MCP-1 and Fbuffer, the fluorescence of cells pre-incubated with buffer-0.2% DMSO and spontaneous migrated to buffer in the bottom wells. Table 7 lists the IC50 values (μM) obtained in the above-described test for compounds of formula (I). Assays were run in triplicate and repeated 2-7 times.

The target in series [2] is T2, CCR2. Briefly: Inhibition of MCP-1 induced Ca-flux in human THP-1 cells. Conditions: -log IC50 (molar), inhibition of specific MCP-1 (10^-7 M hMCP-1) induced Ca2+ flux, FLIPR. The series is classed as cell-based. More on the design: host or cells: THP-1 (human monocytic cell line). The procedure:
Inhibition of MCP-1 Induced Ca-Flux in Human THP-1 Cells
MCP-1 binding to the CCR2 receptor induces a rapid and transient intracellular release of Ca^2+ (secondary messenger) in several cell lines (Charo et al, PNAS 1994). Free Ca^2+ levels can be measured using a Ca^2+ sensitive dye. When the CCR2 receptor is blocked with a CCR2 receptor antagonist, the MCP-1 induced release of Ca^2+ is inhibited.
Human THP-1 cells (monocytic cell line, ATCC TIB-202) were cultured in RPMI 1640 medium supplemented with 10% fetal calf serum (FCS), 1% L-Glutamine, penicillin (50 U/ml) and streptomycin (50 μg/ml) (all GIBCO BRL, Gent). After centrifugation, cells were loaded for 30 minutes with the Ca^2+ sensitive fluorescent dye Fluo-3 μM (Molecular Probes, Leiden, Netherlands) (2 million cells/ml in RPMI medium containing 4 μM Fluo-3 μM, 20 mM HEPES, 0.1% Bovine Serum Albumin (BSA) and 5 mM probenecid). Excess dye was removed by 3-fold washing with buffer (5 mM HEPES, 140 mM NaCl, 1 mM MgCl2, 5 mM KCl, 10 mM glucose, 2.5 mM probenecid, 1.25 mM CaCl2, 0.1% BSA; all further incubations were done in this buffer). Cells were plated at a density of 150 000 cells/well in dark-wall 96-well plates (Costar, Cambridge, Mass.) and sedimented by centrifugation (1 minute). The cells were pre-incubated for 20 minutes with test compound. Then, 10^−7 M hMCP-1 (Bachem, Bubendorf, Switserland) was added. Changes in intracellular free Ca^2+ concentration were measured using the Fluorescent Imaging Plate Reader (FLIPR, Molecular Devices, Munchen, Germany). Fluorescence was recorded every second from 10 seconds before the addition of the MCP-1 till 2 minutes after the addition (first minute: 60 records with 1 second intervals, second minute 20 records with 3 second intervals). The maximal fluorescence obtained during this time frame was used for further calculations.
Table 5 reports pIC50 values obtained in the above-described test for compounds of formula (I). pIC50 defines—log IC50 wherein IC50 is the molar concentration of the test compound which inhibits 50% of specific MCP-1 induced Ca^2+ flux.

`CCC(c1ccc(Cl)c(Cl)c1)n1cc(-c2sc(N)nc2C)nc1S.Cl` (stereo not drawn): the melting point was in the range of 301.8 to 303.3 °C.
For `CCC(c1ccc(F)c(F)c1)n1c(C(=O)OC)c(-c2ccno2)[nH]c1=S` (stereo in doubt) [Compound 53, (S)-3-[1-(3,4-difluoro-phenyl)propyl]-5-isoxazol-5-yl-2-thioxo-2,3-dihydro-1H-imidazole-4-carboxylic acid methyl ester], at CCR2B, affinity was put at a Ki of 0.03 µM. This compound showed an IC50 against CCR2 [1] of 0.108 µM.
Regarding `CCC(c1ccc(Cl)c(Cl)c1)n1c(C(=O)OC)c(-c2cccs2)[nH]c1=S` (stereo not drawn) [Compound 6], the 50% inhibitory concentration (IC50) against CCR2 [2] is 0.055 µM.
On CCR2 [2], `CCC(c1ccc(F)c(F)c1)n1c(S)nc(-c2ccno2)c1C(=O)OC` (stereo not drawn) [Compound 7] showed a 50% inhibitory concentration (IC50) of 0.0117 µM.
In the case of `CCC(c1ccc(Cl)c(Cl)c1)n1c(S)nc(-c2nnco2)c1C(=O)OC` (stereo not drawn) [Compound 9], 0.0355 µM corresponded to half-maximal inhibition against CCR2 [2] (IC50).
The compound `CCC(c1ccc(F)c(F)c1)n1c(C(N)=O)c(-c2nnc(C)o2)[nH]c1=S` (stereo not drawn) [Compound 13] had a melting point of 228 to 229 °C. On CCR2B, this compound displayed an inhibitory constant (Ki) of 0.3 µM.
With `CCC(c1ccc(F)c(F)c1)n1c(C(=O)NCCO)c(-c2nnc(C)o2)[nH]c1=S` (stereo not drawn) [Compound 14], the melting point lay in the range of 165 to 166 °C.
Compound `CCC(c1ccc(F)c(F)c1)n1c(S)nc(-c2cc(C)on2)c1C(=O)OCCOC` (stereo not drawn) [Compound 16] showed an IC50 at CCR2 [2] of 0.0316 µM.
For `CCC(c1ccc(Cl)c(Cl)c1)n1c(C(=O)O)c(-c2cccs2)[nH]c1=S` (stereo not drawn) [Compound 23], the 50% inhibitory concentration (IC50) against CCR2 [1] worked out at 0.024 µM.
On CCR2 [2], `CCC(c1ccc(Cl)c(Cl)c1)n1c(C(=O)OC)c(-c2snnc2C)[nH]c1=S` (stereo not drawn) [Compound 24] had an IC50 of 0.0724 µM.
Still for that read-out and setting: the value for `CCC(c1ccc(Cl)c(Cl)c1)n1c(C(=O)OC)c(-c2ccno2)[nH]c1=S` (stereo not drawn) [Compound 25] was 0.0132 µM.
On CCR2B, `CCC(c1ccc(Cl)c(Cl)c1)n1c(C(=O)OC)c(-c2ccno2)[nH]c1=S` (stereo not drawn) [Compound 26] showed an inhibitory constant (Ki) of 0.05 µM. The compound also had a concentration for half-maximal inhibition (IC50) against CCR2 [2] of 0.00794 µM.
At CCR2 [2], `CCC(c1ccc(Cl)c(Cl)c1)n1c(C(=O)OC)c(-c2nnc(C)o2)[nH]c1=S` (stereo not drawn) [Compound 27] showed an IC50 of 0.0331 µM.
In the case of `CCC(c1ccc(Cl)c(Cl)c1)n1c(C(=O)OC)c(-c2cc(C)on2)[nH]c1=S` (stereo not drawn) [Compound 28], the Ki at CCR2B turned out to be 0.01 µM. For the same compound, the IC50 is 0.0158 µM against CCR2 [2] and 0.367 µM against CCR2 [1].
`CCC(c1ccc(Cl)c(Cl)c1)n1c(C(=O)OC)c(-c2ccccc2)[nH]c1=S` (stereo not drawn) [Compound 31] registered a Ki on CCR2B of 0.07 µM. The half-maximal inhibitory concentration (IC50) against CCR2 [2] was 0.0759 µM; on CCR2 [1], 0.214 µM.
On CCR2 [2], `CCC(c1ccc(Cl)c(Cl)c1)n1c(C(=O)OC)c(-c2ccccn2)[nH]c1=S` (stereo not drawn) [Compound 32] showed a 50% inhibitory concentration (IC50) of 0.0251 µM.
The compound `CCC(c1ccc(Cl)c(Cl)c1)n1c(C(=O)OC)c(-c2ccncc2)[nH]c1=S` (stereo not drawn) [Compound 33] had an IC50 against CCR2 [2] of 0.0126 µM.
`CCC(c1ccc(Cl)c(Cl)c1)n1c(C(=O)OC)c(-c2cnccn2)[nH]c1=S` (stereo not drawn) [Compound 34]: the IC50 on CCR2 [2] was 0.0251 µM.
At CCR2B, `CCC(c1ccc(Cl)c(Cl)c1)n1c(C(N)=O)c(-c2nnc(C)o2)[nH]c1=S` (stereo not drawn) [Compound 36] showed an inhibitory constant (Ki) of 0.07 µM. For the same compound, the half-inhibitory concentration (IC50) on CCR2 [2] was 0.0398 µM; against CCR2 [1], 0.244 µM.
The compound `CCCC(c1ccc(Cl)c(Cl)c1)n1c(C(=O)OC)c(-c2nnc(C)o2)[nH]c1=S` (stereo not drawn) [Compound 40] showed an IC50 against CCR2 [2] of 0.0437 µM.
In turn, `CC[C@H](c1ccc(F)c(F)c1)n1c(C(=O)OC)c(-c2ccno2)[nH]c1=S` [Compound 43] had a Ki at CCR2B of 0.03 µM. Besides, on CCR2 [2], the IC50 was 0.00794 µM.
On CCR2 [2], `CCCC(c1ccc(F)c(F)c1)n1c(C(=O)OC)c(-c2ccno2)[nH]c1=S` (stereo not drawn) [Compound 48] had a half-maximal inhibitory concentration (IC50) of 0.0126 µM.
For the compound `CCCC(c1ccc(F)c(F)c1)n1c(C(=O)OC)c(-c2cc(C)on2)[nH]c1=S` (stereo not drawn) [Compound 49], on CCR2 [2], inhibition was half-maximal at 0.0251 µM (IC50).
With `COCC(c1ccc(F)c(F)c1)n1c(C(=O)OC)c(-c2nnc(C)o2)[nH]c1=S` (stereo not drawn) [Compound 50], the melting point is 102.8 to 102.9 °C.
As for `CCC(c1ccc(Cl)c(Cl)c1)n1c(C(=O)OC)c(-c2cccnc2)[nH]c1=S` (stereo not drawn) [Compound 51], the IC50 against CCR2 [2] was 0.0398 µM; on CCR2 [1], 0.474 µM.

Values taken from US20070249691A1, “Mercaptoimidazoles as Ccr2 Receptor Antagonists” (priority 2004, published 2007).
